Data taken from US20230233584A1, “EXTENDED RELEASE 5-HT RECEPTOR AGONISTS FOR NEUROLOGICAL CONDITIONS” (Diamond Therapeutics Inc., priority 2020, published 2023).
Entries after “also recorded” stand apart in the source; their conditions may differ.

How the values were obtained:
Long Evans rats = assay: 5-CSRTT during 12-day minipump (extended release) dosing of poor performing rats; format: in vivo; settings: for increase in premature behaviors: minipump (ER dosing)
Experimental: The 5-choice serial reaction time task (5-CSRTT) was used to measure attentional performance in rodents. The test design involves training animals to respond to a brief visual stimulus presented unpredictably in one of five locations. Once trained to stable performance levels, the effects of experimental manipulations on response speed and choice accuracy were measured and each are related to attentional performance. The test was used to examine aspects of response control with responding prior to stimulus onset, i.e., a premature response, becoming a measure of motor impulsivity. The test is adaptable to task modification. Variations to stimulus duration (SD, 0.03-1 s duration) and frequency of stimulus presentation (2-10 s), amongst others have become commonly used to tax performance.
72 male Long Evans rats (source: Charles River, St. Constant, QE) were trained to asymptotic performance in the 5-CSRTT over a period of approximately 2 months. The rats were trained to final stimulus duration (SD) of 0.75 s, 5 s inter-trial interval (ITI), 5 s limited hold (LH), 100 trials per session. The rats were singly housed and food restricted to ˜20 g food/day throughout the study.
While the target performance levels under these conditions was in the range of >80% accuracy, <20% omissions, individual rats show different performance levels based on attentional accuracy or measures of impulsive action. The selection phase involves selecting the “worst” 40 rats based on both attentional performance (lowest performance based on accuracy measures of % correct/% hit) and/or impulsive action ([…] levels of premature responses noted at an extended 10 s ITI schedule and also baseline testing).
During the training period, 72 rats were trained on the 5-CSRTT, and the 40 worst performers. The 40 animals with the “worst” attentional performance (lowest performance based on accuracy measures of % correct, omissions and response speed) and impulsive action (PREM responses) were selected for the experiment. These 40 poor performing rats were allocated into one of two cohorts, with N=16 rats implanted with a vehicle (saline, Group A) minipumps and N=24 implanted with minipumps primed with psilocybin.
For 12 days following pump implantation surgery, rats were assessed for performance in the 5-CSRTT under (A) standard 5-CSRTT protocol (5 s ITI, 0.75 s SD, 100 trials) on days 1-4, 6-8, 10-11 (i.e. 9 days total run under this condition), and (B) the more difficult conditions of 10 s ITI, 0.3 s SD, 100 trials. The standard conditions were tested on days 1-4, 6-8, 10-11, and the more difficult conditions were tested on post-implant days 5, 9 and 12 (i.e. 3 days total run under this condition).
The result was significant on D2 (P<0.05). In FIG. 8A, B/L refers to ‘baseline’ conditions of 5 s ITI, 0.75 SD (calculated by taking the mean of the days immediately prior to and immediately following the test day). For example, B/L1 is the mean of performance on the days before and after D1 (since D1 is test day 5, B/L is mean of days 4 and 6).

[1] = test system: 5-HT2A receptor activation; assay: Motor activity and overt stereotypies during minipump dosing; format: in vivo; settings: psilocybin minipump, 12 days, rats
Experimental: There were no changes in motor activity (distance travelled, rearing counts), or induction of overt stereotypies, including cardinal signs of 5-HT2A receptor activation (Wet Dog Shakes and Back Muscle Contractions (WDS, BMD). At the completion of 12 days testing the rats were euthanized and cardiac and brain tissue were collected and snap frozen. Histological analysis was performed for the samples.

CN(C)CCc1c[nH]c2cccc(OP(=O)(O)O)c12 [psilocybin, 4-phosphoryloxy-N,N-dimethyltryptamine]
mean performance on Days 1-3 (Long Evans rats; 10 s ITI challenge days, vs. vehicle, p=0.03): significantly improved
% correct / performance (Long Evans rats; 10 s ITI, Challenge Day 2 (D2, test day 9), vs vehicle): significant improvement; also recorded: significant (P=0.01) increase
% correct responses (Long Evans rats; challenging conditions 10 s ITI, 0.3 s SD, test days 5, 9 and 12, vs vehicle): performed better than vehicle treated animals
increase in premature behaviors (Long Evans rats; more taxing/challenge conditions 10 s ITI, 0.3 s SD): do not have an increase in premature behaviors
increase in premature behaviors (Long Evans rats; standard conditions): do not have an increase in premature behaviors
correct attempts (Long Evans rats; minipump, standard test conditions, over a period of time): does not increase the number of correct attempts; also recorded: did not show that psilocybin caused an increase in correct attempts
motor activity (distance travelled, rearing counts), overt stereotypies incl. WDS and BMC [1]: no changes
